Data reported in ChEMBL document CHEMBL1136945, “Antimalarial activity of thiosemicarbazones and purine derived nitriles” (Bioorg Med Chem Lett, 2009).

What was measured:
Type in all cases: functional, organism-based
Plasmodium falciparum [1] = experiment: (§1) Antimalarial activity as reduced parasitaemia after 72 hrs against chloroquine-resistant Plasmodium falciparum K1 infected human O+ erythrocytes by DNA stain without pepstatin; conditions: K1, 72 h
Plasmodium falciparum [2] = experiment: as §1; conditions: K1, 72 h; remark: listed apart in the source
Plasmodium falciparum [3] = experiment: Antimalarial activity as reduced parasitaemia after 72 hrs against chloroquine-sensitive Plasmodium falciparum 3D7 infected human O+ erythrocytes by DNA stain without pepstatin; conditions: 3D7, 72 h
Plasmodium falciparum [4] = experiment: Antimalarial activity as reduced parasitaemia after 72 hrs against chloroquine-sensitive Plasmodium falciparum 3D7 infected human O+ erythrocytes by DNA stain with pepstatin; conditions: 3D7, 72 h

SMILES	EC50 (Plasmodium falciparum [1])	EC50 (Plasmodium falciparum [2])	EC50 (Plasmodium falciparum [3])	EC50 (Plasmodium falciparum [4])
CCCC/C(=N\NC(N)=S)c1ccc(Cl)c(Cl)c1	> 30 µM	> 30 µM	> 30 µM	> 30 µM
Cc1ccc(/C(=N/NC(N)=S)c2ccccc2)cc1	> 30 µM	> 30 µM	> 30 µM	> 30 µM
Cc1ccc(/C(=N/NC(N)=S)c2cccc(C(F)(F)F)c2)cc1	> 30 µM	> 30 µM	> 30 µM	30 µM
CC(O)CN1CNc2c(NCc3ccc(Cl)c(Cl)c3)nc(C#N)nc21 (configuration not stated)	> 30 µM	> 30 µM	> 30 µM	30 µM
N#Cc1nc(NCc2ccc(Cl)c(Cl)c2)c2c(n1)N(CC(O)CO)CN2 (configuration not stated)	> 30 µM	> 30 µM	> 30 µM	> 30 µM
N#Cc1nc(NCc2ccc(Cl)c(Cl)c2)c2c(n1)N(Cc1ccccc1)CN2	> 30 µM	30 µM	> 30 µM	30 µM
COCCCN1CNc2c(NCc3ccc(Cl)c(Cl)c3)nc(C#N)nc21	> 30 µM	> 30 µM	> 30 µM	30 µM
COc1ccc(CN2CNc3c(NCc4ccc(Cl)cc4)nc(C#N)nc32)cc1	> 30 µM	> 30 µM	> 30 µM	30 µM
N#Cc1nc(NCc2ccc(Cl)cc2)c2c(n1)N(Cc1cccc(C(F)(F)F)c1)CN2	> 30 µM	30 µM	> 30 µM	30 µM
COC(CCN1CNc2c(NCc3ccc(Cl)c(Cl)c3)nc(C#N)nc21)OC	> 30 µM	> 30 µM	> 30 µM	30 µM
N#Cc1nc(NCc2ccc(Cl)c(Cl)c2)c2c(n1)N(CCCC(=O)O)CN2	> 30 µM	> 30 µM	> 30 µM	> 30 µM
N#Cc1nc(NCc2cccc(-c3cc(Cl)cc(Cl)c3)c2)c2ncn(CCCO)c2n1	> 30 µM	> 30 µM	> 30 µM	> 30 µM
N#Cc1nc(NCc2cccc(-c3ccc(Cl)c(Cl)c3)c2)c2ncn(CCCO)c2n1	> 30 µM	> 30 µM	> 30 µM	> 30 µM
N#Cc1nc(NCc2ccc(Br)cc2)c2c(n1)N(CCCc1ccccc1)CN2	> 30 µM	> 30 µM	> 30 µM	> 30 µM
CCCCN1CNc2c(NCc3ccc(Cl)c(Cl)c3)nc(C#N)nc21	> 30 µM	> 30 µM	> 30 µM	30 µM
N#Cc1nc(NCc2ccc(-c3ccco3)cc2)c2ncn(CCCO)c2n1	13 µM	12 µM	18 µM	12 µM
Cc1cccc(/C(=N/NC(N)=S)c2cccc(F)c2)c1	> 30 µM	> 30 µM	> 30 µM	> 30 µM
N#Cc1nc(NCc2cccc(Cc3cccc(Cl)c3)c2)c2ncn(CCCO)c2n1	> 30 µM	> 30 µM	> 30 µM	> 30 µM
CN(C)c1cccc(-c2cccc(CNc3nc(C#N)nc4c3ncn4CCCO)c2)c1	> 30 µM	> 30 µM	> 30 µM	> 30 µM
N#Cc1nc(NCc2ccc(-c3cccnc3)cc2)c2ncn(CCCO)c2n1	> 30 µM	> 30 µM	> 30 µM	> 30 µM
Cc1ccc(/C(=N/NC(N)=S)c2cc(Cl)cc(Cl)c2)cc1	> 30 µM	> 30 µM	> 30 µM	30 µM
COC(=O)c1cccc(-c2cccc(CNc3nc(C#N)nc4c3ncn4CCCO)c2)c1	> 30 µM	> 30 µM	> 30 µM	> 30 µM

SMILES	EC50 (Plasmodium falciparum [1])	EC50 (Plasmodium falciparum [2])	EC50 (Plasmodium falciparum [3])	EC50 (Plasmodium falciparum [4])
NC(=S)N/N=C(\c1cc(Cl)cc(Cl)c1)c1cccs1	> 30 µM	> 30 µM	> 30 µM	30 µM
CC(=O)Nc1cccc(CNc2nc(C#N)nc3c2ncn3CCCO)c1	15 µM	11 µM	15 µM	6 µM
C=Cc1cccc(-c2cccc(CNc3nc(C#N)nc4c3ncn4CCCO)c2)c1	> 30 µM	> 30 µM	> 30 µM	> 30 µM
C=Cc1ccc(-c2cccc(CNc3nc(C#N)nc4c3ncn4CCCO)c2)cc1	> 30 µM	> 30 µM	> 30 µM	> 30 µM
N#Cc1nc(NCc2cccc(-c3ccc4ccccc4c3)c2)c2ncn(CCCO)c2n1	> 30 µM	> 30 µM	> 30 µM	30 µM
N#Cc1nc(NCc2cccc(-c3ccco3)c2)c2ncn(CCCO)c2n1	> 30 µM	> 30 µM	> 30 µM	> 30 µM
N#Cc1nc(NCc2cccc(-c3ccsc3)c2)c2ncn(CCCO)c2n1	> 30 µM	> 30 µM	> 30 µM	> 30 µM
N#Cc1nc(NCc2cccc(-c3ccoc3)c2)c2ncn(CCCO)c2n1	> 30 µM	> 30 µM	> 30 µM	> 30 µM
CC(C)Oc1c(Br)cccc1-c1cccc(CNc2nc(C#N)nc3c2ncn3CCCO)c1	> 30 µM	> 30 µM	30 µM	30 µM
COc1cc(OC)c(-c2cccc(CNc3nc(C#N)nc4c3ncn4CCCO)c2)cn1	> 30 µM	> 30 µM	> 30 µM	> 30 µM
N#Cc1nc(NCc2ccc(-c3cccc(Cl)c3)cc2)c2ncn(CCCO)c2n1	20 µM	18 µM	20 µM	14 µM
N#Cc1nc(NCc2ccc(Cl)c(Cl)c2)c2c(n1)N(CCCO)CN2	> 30 µM	> 30 µM	> 30 µM	> 30 µM
COCC(CN1CNc2c(NCc3ccc(Cl)c(Cl)c3)nc(C#N)nc21)OC (configuration not stated)	> 30 µM	> 30 µM	> 30 µM	30 µM
N#Cc1nc(NCc2ccc(Cl)c(Cl)c2)c2c(n1)N(Cc1cccc(C(F)(F)F)c1)CN2	30 µM	24 µM	27 µM	30 µM
COc1ccc(-c2cccc(CNc3nc(C#N)nc4c3ncn4CCCO)c2)cc1	> 30 µM	> 30 µM	> 30 µM	> 30 µM
N#Cc1nc(NCc2cccc(-c3ccccc3)c2)c2ncn(CCCO)c2n1	> 30 µM	> 30 µM	> 30 µM	30 µM
N#Cc1nc(NCc2cccc(-c3cccnc3)c2)c2ncn(CCCO)c2n1	> 30 µM	> 30 µM	> 30 µM	> 30 µM
N#Cc1nc(NCc2cccc(-c3cccs3)c2)c2ncn(CCCO)c2n1	> 30 µM	> 30 µM	> 30 µM	> 30 µM
N#Cc1nc(NCc2cccc(-c3cc4ccccc4n3S(=O)(=O)c3ccccc3)c2)c2ncn(CCCO)c2n1	> 30 µM	30 µM	> 30 µM	30 µM
N#Cc1nc(NCc2cccc(-c3cn(S(=O)(=O)c4ccccc4)c4ccccc34)c2)c2ncn(CCCO)c2n1	> 30 µM	30 µM	> 30 µM	30 µM
N#Cc1nc(NCc2cccc(-c3ccc4cc[nH]c4c3)c2)c2ncn(CCCO)c2n1	> 30 µM	> 30 µM	> 30 µM	> 30 µM
